The text below walks through data of article PMC3735853 (Journal of biomolecular screening, 2013).

Read-outs that look alike come from different tables or passages of the source.

For one assay, the target named is hV2R[L^83Q] (Homo sapiens, UniProt P30518, L83Q). The assay is described as follows: uHTS optimized primary V2R pharmacoperone assay. In kind it is cell-based. Particulars: for LOPAC Screen Average %Response +/−Std Dev: single concentration of 6 μM (0.4% DMSO), normalized to 100 nM SR121463 (positive) and DMSO (negative), triplicate.
The target of another assay is V2R. As to conditions: cited from earlier work.

Broadly, the EC50 is the concentration giving half of the maximal effect. Take `C[C@H]1CCC/C=C/[C@@H]2C[C@H](O)C[C@H]2[C@H](O)/C=C/C(=O)O1` [Brefeldin A]: at hV2R[L^83Q], the EC50 was found to be 270 nM and the “LOPAC Screen Average %Response +/−Std Dev” value was 43+/−1%.
For `C=C[C@@]1(C)CC(=O)[C@]2(O)[C@@]3(C)[C@@H](O)CCC(C)(C)[C@@H]3[C@H](O)[C@H](OC(C)=O)[C@@]2(C)O1` [Forskolin], on hV2R[L^83Q], the 50% effective concentration (EC50) turned out to be 430 nM and the “LOPAC Screen Average %Response +/−Std Dev” value is 104+/−0%.
As for `Cc1ccccc1N1CCN(S(=O)(=O)C[C@]23CC[C@H](C[C@@H]2NC(=O)[C@@H](N)CCS(C)(=O)=O)C3(C)C)CC1` [L-368,899], on hV2R[L^83Q], the “LOPAC Screen Average %Response +/−Std Dev” value is given as 74+/−2%.
One may read the Ki as the dissociation constant of the complex between target and ligand, obtained from inhibition or displacement. Turning to `CCOc1ccc2c(c1)C1(CCC(OCCN3CCOCC3)CC1)C(=O)N2S(=O)(=O)c1ccc(C(=O)NC(C)(C)C)cc1OC` (stereo not drawn) [SR121463], the “lowest level detectable in the assay system” value on hV2R[L^83Q] (no-wash protocol) is given as 1 nM. For the same compound, the concentration for a half-maximal effect (EC50) on hV2R[L^83Q] (read-out: EC50 (pharmacoperone rescue), presence of 1 μM vasopressin, no-wash protocol, absence of doxycycline (n=4)) was 1.97 ± 0.25 nM. Further, the inhibition constant Ki at V2R (read-out: Ki (antagonist), no reference given) is about 1 nM; on V2R (read-out: Ki of SR121463 (literature value), used to perform the fit), 0.94 nM.
